Experimental data from PMC10489817, “2-Alkyl-Substituted-4-Amino-Thieno[2,3-d]Pyrimidines: Anti-Proliferative Properties to In Vitro Breast Cancer Models” (Molecules, 2023).
Where “and” joins values, the source holds several entries; their conditions need not be identical. Equal values may be shown once.

Tests used:
[1] = system: MCF-7; experiment: ζ-potential measurement, MCF-7; type: cell-based, human; details: PBS pH 7.4, 37 °C; more negative after treatment
Experimental: (§1) First, the ζ-potential of each cell line was measured, and all obtained values were negative (Figure 6A). The Student t-test statistical analysis which was applied distinguished the ζ-potentials of the three studied cell lines with p < 0.05, and the values followed the order of MCF-7 > MDA-MB-231 > MCF-10A. […] represents the relative percentage change of the ζ-potential induced by the studied compounds for the different cell lines. Compound 2 was able to decrease the ζ-potential of the cells with the following ranking: MCF-7 (42%) > MCF-10A (24%) > MDA-MB-231 (16%). For compound 4, the ranking was as follows: MCF-10A (50%) > MDA-MB-231 (46%) > MCF-7 (3%). For compound 5, this was MCF-10A (36%) > MCF-7 (22%) > […].
(§2) The zeta (ζ ξ) potential is the electrostatic potential at the shear plane of a cell, and is related to both its surface charge and the local environment. The ζ-potential of the intact cells and the treated ones was recorded in a cell suspension (0.5 × 10^6 cells/mL) in PBS, using the electrophoretic light-scattering technique on a Zetasizer Nano ZS analyzer (Malvern Instruments, Great Britain). Laser Doppler electrophoresis and velocimetry of cells were used to determine the ζ-potential by measuring the speeds of the cells in PBS upon the application of an electric field. The ζ-potential was calculated based on the Helmholtz–Smoluchowski equation. The measurements were performed in a U-shaped cell with gold-plated electrodes at 37 °C.
(§3) Figure 6 ζ-potential of the investigated cell lines, MCF-10A, MCF-7, and MDA-MB-231 (A). Alterations in the ζ-potential after treatment with compounds 2 (pink), 4 (blue), and 5 (green) (B). All zeta potential values were measured in PBS buffer (137 mM NaCl, 2.7 mM KCl, 8 mM Na2HPO4, and 2 mM KH2PO4; pH 7.4) at 37 °C. Two independent experiments were carried out for each cell line, and each sample was measured 6 times. (*; ***) denote p < 0.05 and p < 0.001 as follows. […]

[2] = system: MCF-10A; experiment: ζ-potential measurement, MCF-10A; type: cell-based, human; details: PBS pH 7.4, 37 °C; more negative after treatment
Experimental: as §1, §2, §3

[3] = system: BALB 3T3 cells; experiment: in vitro 3T3 NRU test, cytotoxicity; type: cell-based, mouse; details: for IC50: BALB 3T3, value in brackets
Experimental: Compounds 2–5 were studied for cytotoxicity/phototoxicity by an in vitro 3T3 NRU-test. The cell line BALB 3T3, clone A31 (mouse embryo fibroblasts), was incubated with the test compounds at a concentration from 15 to 4000 µg/mL for 24 h at 37 °C, 5% CO2, and 95% humidity. The cytotoxicity and phototoxicity were expressed in percentages relative to the negative control determined. […] Based on the dose–response curves, the CC50/PC50 values (50% cytotoxic/phototoxic concentration) were calculated by nonlinear regression analysis (Table 1). The CC50 values can be used to calculate the PIF (photo-irritancy factor) for each test compound according to the following formula: PIF = CC50/PC50.
BALB/3T3 cells were cultured in 75 cm^2 tissue culture flasks in DMEM, 10% FBS, 2 mM glutamine, and antibiotics (penicillin 100 U/mL and streptomycin-100 µg/mL) at 37 °C, 5% CO2, and 90% relative humidity. Cytotoxicity/phototoxicity was assessed by a validated BALB/3T3 clone A31 neutral red uptake assay (3T3 NRU test). Briefly, cells were plated in a 96-well microtiter plate at a density of 1 × 10^4 cells/100 µL/well and incubated for 24 h. A wide concentration range was applied for the test compounds. For the phototoxicity tests, 96-well plates were irradiated with a dose of 2.4 J/cm^2, and the cells were incubated for an additional 24 h. After treatment with neutral red medium, washing, and treatment with the ethanol/acetic acid solution, the absorption was measured on a TECAN microplate reader (TECAN, Grödig, Austria) at a wavelength of 540 nm. The light source which we used was a light-emitting diode (LED) matrix—an artificial solar light simulator Helios-iO, model LE-9ND55-H—5500K (SERIC Ltd., Tokyo, Japan).
Cytotoxicity/phototoxicity were expressed as CC50/PC50 values (concentrations required for 50% cytotoxicity/phototoxicity), calculated using non-linear regression analysis (GraphPad Software GraphPad Prism 9.5.1, San Diego, CA, USA). The CC50 values were used to calculate the PIF (photo-irritancy factor) for each test substance, according to the following formula: […]

Structure (SMILES) | Δζ/ζ relative change of ζ-potential, MCF-7 [1] | Δζ/ζ relative change of ζ-potential, MCF-10A [2] | IC50 [3] [mM] | IC50 of Mean ± SD, Cytotoxicity ([3]; BALB 3T3, 24 h, NRU, no irradiation (CC50)) [µg/mL]
CCOC(=O)Cc1nc(N)c2c(C)c(C(=O)OCC)sc2n1 [Compound 2, Ethyl 4-Amino-2-(2-Ethoxy-2-Oxoethyl)-5-Methylthieno[2,3-d]Pyrimidine-6-Carboxylate] | 42.14% and 42% | 24.27% and 24% | 5.4 | –
CCOC(=O)c1sc2nc(CC)nc(N)c2c1C [Compound 4, Ethyl 4-Amino-2-Ethyl-5-Methylthieno[2,3-d]Pyrimidine-6-Carboxylate] | 3.35% and 3% | 50.48% and 50% | 6.4 | 1678 ± 70.4
CCOC(=O)c1sc2nc(C)nc(N)c2c1C [Compound 5, Ethyl 4-Amino-2,5-Dimethyl-Thieno[2,3-d]Pyrimidine-6-Carboxylate] | 22.27% and 22% | 35.94% and 36% | – | –
